Key:
[1] = UV photostability, irradiation at 254 nm, 1H NMR; format: physicochemical; details: 70 h UV irradiation at 254 nm
Description: The compounds of interest were dissolved using ethanol and their UV spectrum was analyzed to determine their λmax to establish an irradiation wavelength to be used in the study (see FIG. 2). The best wavelength for testing the UV stability of the —CH═CH— double bond was determined to be 254 nm. Further material of the compounds was then dissolved in deuterated ethanol and the ^1H NMRs (400 MHz) analyzed (T=0). Each sample was then recovered from the NMR tube and subjected to UV irradiation (254 nm) for 4 h, 15 h and 70 h. At the respective timepoints the individual samples were re-analyzed by ^1H NMR and the signal for the —CH═CH— protons evaluated to assess the percent of remaining intact double bond. Other changes in the chemical shift signals were also analyzed for further changes on the overall structure of the molecules.

[2] = system: BSEP and SHP gene expression; assay: FXR target gene induction in mouse liver (qRT-PCR), high fat diet mice; format: in vivo, C57/bI6 mice; details: HFD mice, estimated 30 mg/kg daily in food, normalized to TBP
Description: C57/bI6 mice (Elevage Janvier, France) at the age of 8 weeks were put on a high fat diet (60% kcal from fat, Sniff, Soest, Germany, Cat. No. E15771-30 (Mod. Surwit)+0.5 cholesterol (Sigma-Aldrich, Germany) added) for 4 weeks. Baseline blood samples were taken after overnight starvation and fasting plasma glucose was determined using a Roche Accucheck device. In parallel L1-heparin plasma was generated for the determination of baseline total triglyceride (TG) and total cholesterol (TC) levels. Animals were maintained on the HFD+0.5% cholesterol diet for 8 weeks and weekly blood samples were taken for the monitoring of plasma TG and TC levels using routine enzymatic analysis kits (WAKO Diagnostics, Neuss, Germany). The test compounds were dissolved in 100% palm fat and then mixed into molten food for an estimated daily uptake of 30 mg/kg based on averaged food consumption in the 4 weeks HFD adaptation period. FIGS. 4 and 5 show the development of TG and TC values.
RNA was isolated using RNAzol RT Reagent (Fermentas) and mRNA levels determined by quantitative reverse-transcription polymerase chain reaction (qRT-PCR) using Absolute QPCR Rox Mix (Invitrogen) and a real-time PCR machine from Applied Biosystems (CA). Primer and probe sequences (5′ to 3′) used were: SHP, Fwd […]; Rev […]; probe 56-FAM/[…] and BSEP, Fwd […]; Rev […]; probe 56-FAM/ATGGCT […]. All samples were run in duplicate. […]

| Structure (SMILES) | behaviour in 1H NMR spectrum after prolonged UV irradiation [1] | gene expression of BSEP in liver [2] [fold] | gene expression of SHP in liver [2] [fold] |
| --- | --- | --- | --- |
| O=C(O)c1cccc(C2CC2c2ccc(OCc3c(-c4c(Cl)cccc4Cl)noc3C3CC3)cc2Cl)c1 (racemic) [Example 4, 3-(2-(2-chloro-4-((5-cyclopropyl-3-(2,6-dichlorophenyl)isoxazol-4-yl)methoxy)phenyl)-cyclopropyl)benzoic acid] | inert | – | – |
| O=C(O)c1ccc(C2CC2c2ccc(OCc3c(-c4c(Cl)cccc4Cl)noc3C3CC3)cc2Cl)cc1 (racemic) [Example 12, 4-(2-(2-chloro-4-((5-cyclopropyl-3-(2,6-dichlorophenyl)isoxazol-4-yl)methoxy)phenyl)cyclopropyl)benzoic acid] | – | 6 | 6 |

Source: patent US8952042B2, “FXR (NR1H4) binding and activity modulating compounds” (Phenex Pharmaceuticals AG, priority 2009, dated 2015)
